Measurements from patent publication EP0648744A1, “Phenylalkanolamine derivatives as antagonists of the NMDA receptor” (F. HOFFMANN-LA ROCHE AG, priority 1993, dated 1995).

Tests used:
[1] = target: NMDA receptor; experiment: 3H-MK 801 (dizocilpine) binding in vitro, rat brain membranes; details: displacement of 5 nM ³H-MK 801, washed rat brain membranes; high affinity values determined from biphasic displacement curves; read-out: IC₅₀
Experimental: 1. ^3H-MK 801 (dizocilpine) binding in vitro
³H-MK 801 binding was performed as described in Ransom, R.W. and Stec, N.L., J. Neurochem. 51 (1988) 830-836, with extensively washed rat brain membranes prepared according to the following scheme. Frozen whole rat brain was thawed and cerebellum and medulla oblongata were removed on ice. The tissue was then homogenized with an Ultra Turrax (maximal energy) during 30 sec at 4°C in 50 volumes of Tris·HC1 (5mM) with ethylenediaminetetraacetic acid (EDTA) disodium (10 mM, pH = 7.4). The homogenate was centrifuged at 48'000 x g for 10 min. The pellet was rehomogenized with the same volume of the same buffer and the homogenate was then incubated at 37°C for 10 min. After centrifugation the pellet was rehomogenized under the same conditions and frozen at -80°C in 35 ml fractions for at least 16 hours and not more than 2 weeks.
On the day of experiment, the homogenate was thawed 15 minutes at 37°C and centrifuged as above. The pellet was rehomogenized in 25 volumes of Tris·HC1 buffer (5mM, pH = 7.4) and the homogenate was recentrifuged. This procedure was repeated twice. The final pellet was rehomogenized in 25 volumes of Tris·HC1 buffer (5 mM, pH = 7.4) related to the original wet weight and used as such in the assay. Final concentration in the assay was 20 mg/ml.
300 µl of tracer solution (final concentration 5 nM ³H-MK 801) in Tris·HC1 buffer (5 mM, pH 7.4) were incubated with 100 µl of test solution (100 µl of Tris·HC1 buffer for the total binding or 100 µl of buffer plus N-(1-(2-thienyl)cyclohexyl)piperidine (TCP) (final concentration 0.1 µM) for non specific binding). Glutamate, glycine and spermidine (final concentrations 1nM) were added together in 100 µl volume. 500 µl of homogenate (final concentration 20 mg/ml) were then added in the plastic reaction tubes. After 2 hours of incubation at room temperature, the suspension was filtered (Whatmann GF/B, presoaked in 0.05% polyethylenimine for 2 hours) and washed 5 times with 3 ml of cold buffer. The air-dried (3 min) filters were counted in 10 ml of Ultima-gold (Packard) after agitation (10 min.) and standing for 2 hours at 3°C in vials.
These are high affinity values determined from biphasic displacement curves.

[2] = system: embryonic rat cortices; experiment: Acute glutamate neurotoxicity in cortical cell cultures (lactate dehydrogenase release); assay type: cell-based; details: neuronal degeneration, 500 µM glutamate for 5 to 30 minutes at room temperature, lactate dehydrogenase in supernatant after overnight at 37°C, read-out: IC₅₀
Experimental: 2. Acute Glutamate Neurotoxicity
Single cell suspensions were prepared from embryonic rat cortices (E16-17) by digestion with dispase 2.4 U/ml (BOEHRINGER) and subsequent trituration with fire polished pasteur pipettes. The cells were then plated on poly-D-lysine (SIGMA) coated 96 well microtiter plates (NUNC, 10⁵ cells/well) in a total volume of 100 µl Dulbeccos modified essential medium (DMEM, GIBCO) supplemented with 10% horse serum and penicillin/streptomycin (SIGMA). 5 days later, non-neuronal cell division was halted by exposure to […] combined with a 50% exchange of culture medium. The cultures were used for neurotoxicity assays from 8-12 days in vitro.
Acute glutamate toxicity was performed according to D.W. Choi. J. Koh and S. Peters, J. Neurosci. 8 (1988) 185-196, in 100 µl of a control salt solution (CSS: 120 mM NaCl, 5.4 mM KCl, 0.8 mm MgCl₂, 1.8 mM CaCl₂, 25 mM Tris HCl (pH 7.4 at 25°C) and 15 mM glycose) with 500 µM glutamate for 5 to 30 minutes at room temperature with or without addition of substances to be tested.
After washing, the cultures were maintained in 100 µl CSS overnight at 37°C. For quantitation of neurodegeneration, lactate dehydrogenase was measured in the cell culture supernatant as described by J.G. Klingman, D.M. Hartley and D.W. Choi, J. Neurosci. Meth. 31 (1990) 47-51 using a BIOMEK workstation (BECKMAN). […] From dose response curves IC₅₀ values were calculated.

| SMILES | IC50 [1] | IC50 [2] |
| --- | --- | --- |
| C[C@@H](CN1CCC(Cc2ccccc2)CC1)[C@@H](O)c1ccc(O)cc1 (relative stereo) [Ex. 8, (R*,S*)-rac.-α-(4-hydroxyphenyl)-β-methyl-4-(phenylmethyl)-1-piperidinepropanol] | 0.005 µM | 0.04 µM |
| C[C@H](CN1CCC(Cc2ccccc2)CC1)[C@H](O)c1ccc(O)cc1 [Ex. 16, [S-(R*S*)]-α-(4-Hydroxyphenyl)-β-methyl]-4-(phenylmethyl)-1-piperidinepropanol] | 0.003 µM | 0.08 µM |
| C[C@@H](CN1CCC(Cc2ccccc2)CC1)[C@@H](O)c1ccc(O)cc1 [Ex. 15, [R-(R*S*)]-α-(4-Hydroxyphenyl)-β-methyl-4-(phenylmethyl)-1-piperidinepropanol] | 0.0013 µM | 0.06 µM |
| C[C@H](CN1CCC(Cc2ccccc2)CC1)[C@@H](O)c1ccc(O)cc1 (relative stereo) [Ex. 9, (R*,R*)-rac.-α-(4-Hydroxyphenyl)-β-methyl-4-(phenylmethyl)-1-piperidinepropanol] | 0.006 µM | 0.11 µM |

Second part, led by results:

| IC50 [1] | SMILES | IC50 [2] |
| --- | --- | --- |
| 1.3 µM | C[C@@H](CN1CCC(Cc2ccccc2)CC1)[C@@H](O)c1ccc(OCc2ccccc2)cc1 (relative stereo) [Ex. 7, (R*,S*)-rac.-β-Methyl-α-[4-(phenylmethoxy)phenyl]-4-(phenylmethyl)-1-piperidinepropanol] | 64 µM |
| 0.9 µM | C[C@@H](CN1CCC(Cc2ccccc2)CC1)C(=O)c1ccc(OCc2ccccc2)cc1 [Ex. 12, (S)-2-Methyl-1-[4-(phenylmethoxy)phenyl]-3-[4-(phenylmethyl)-1-piperidinyl]-1-propanone] | 66 µM |
| 0.3 µM | C[C@@H](CCN1CCC(Cc2ccccc2)CC1)[C@@H](O)c1ccc(O)cc1 (relative stereo) [Ex. 5, (R*,S*)-rac.-α-(4-Hydroxyphenyl)-β-methyl-4-(phenylmethyl)-1-piperidinebutanol] | 1.9 µM |
| 0.15 µM | CC(Cc1ccc(O)cc1)C(C)N1CCC(Cc2ccccc2)CC1 (racemic) [Ex. 10, rac.-4-[2-Methyl-3-[4-(phenylmethyl)-1-piperidinyl]butyl]phenol] | 0.12 µM |
| 1.4 µM | CC(Cc1ccccc1)CN1CCC(Cc2ccccc2)CC1 (racemic) [Ex. 21, rac.-1-(2-Methyl-3-phenylpropyl)-4-(phenylmethyl)piperidine] | 13 µM |
| 0.53 µM | CC(CCN1CCC(Cc2ccccc2)CC1)Cc1ccc(O)cc1 (racemic) [Ex. 6, rac.-4-[2-Methyl-4-[4-(phenylmethyl)-1-piperidinyl]butyl]phenol] | 3.5 µM |
